Laboratory results reported in article PMC6979384, “Characterization of the plant homeodomain (PHD) reader family for their histone tail interactions” (Epigenetics & Chromatin, 2020).

What was measured:
Experiment in all cases: Histone peptide microarray
Format in all cases: binding, human
[1] = tested on: CHD5 (PCC); settings: CHD5 (PCC), GST-tagged; arrays performed twice, n of 4
Description: (§1) To more comprehensively define the histone interactions of the 31 PHD readers identified from the domain microarray analyses, we probed each on an alternate microarray platform containing a library of 293 synthetic histone peptides with single or combinatorial PTMs (Additional file 2: Figure S4 and Additional file 3: Table S2).
(§2) The 31 GST-tagged PHD readers identified in the PHD finger domain array were expressed and purified as previously. Histone peptide arrays and peptide pulldown assays were conducted as recently described (specifically, the optimized protocol from Petell et al. for the former).
(§3) Supplementary file 13072_2020_328_MOESM3_ESM.xlsx: Additional file 3: Table S2. […] Excel Tab Peptide List is a compiled list of the entire 293 histone peptide library with amino acid sequence ranges. […] Each number corresponds to the peptide number designated in Peptide List. Excel Tab Average Signals is a compiled set of binding data: chromatin reader at 0.5 μM vs. entire 293 peptide library. Data is presented as the average and standard deviation of 4 replicates. The average signals are colored to indicate signal intensity with green being strong and white being weak/low. […] Key: red= stronger relative binding; blue = weaker relative binding. Excel Tab Array info summary is a table summarizing the domains, sequence coverage, array signal range, and noise for each of the GST-tagged readers assayed on the peptide microarrays.

[2] = tested on: ING3; settings: ING3, GST-tagged; arrays performed twice, n of 4
Description: as §1, §2, §3

[3] = tested on: ING4; settings: ING4, GST-tagged; arrays performed twice, n of 4
Description: as §1, §2, §3

[4] = tested on: PHF8; settings: PHF8, GST-tagged; arrays performed twice, n of 4
Description: as §1, §2, §3

[5] = tested on: KDM4C (TTP); settings: KDM4C (TTP), GST-tagged; arrays performed twice, n of 4
Description: as §1, §2, §3

[6] = tested on: PHF21A; settings: PHF21A, GST-tagged; arrays performed twice, n of 4
Description: as §1, §2, §3

[7] = tested on: MORC3 (CW); settings: MORC3 (CW), GST-tagged; arrays performed twice, n of 4
Description: as §1, §2, §3

[8] = tested on: TRIM66 (PB); settings: TRIM66 (PB), GST-tagged; arrays performed twice, n of 4
Description: as §1, §2, §3

[9] = tested on: ING2; settings: ING2, GST-tagged; arrays performed twice, n of 4
Description: as §1, §2, §3

[10] = tested on: CHD4 (PPCC); settings: CHD4 (PPCC), GST-tagged; arrays performed twice, n of 4
Description: as §1, §2, §3

[11] = tested on: KDM5A (1); settings: KDM5A (1), GST-tagged; arrays performed twice, n of 4
Description: as §1, §2, §3

[12] = tested on: PHRF1 (RP); settings: PHRF1 (RP), GST-tagged; arrays performed twice, n of 4
Description: as §1, §2, §3

[13] = tested on: DIDO1; settings: DIDO1, GST-tagged; arrays performed twice, n of 4
Description: as §1, §2, §3

[14] = tested on: CHD5 (PPCC); settings: CHD5 (PPCC), GST-tagged; arrays performed twice, n of 4
Description: as §1, §2, §3

[15] = tested on: ING5; settings: ING5, GST-tagged; arrays performed twice, n of 4
Description: as §1, §2, §3

[16] = tested on: KDM7A; settings: KDM7A, GST-tagged; arrays performed twice, n of 4
Description: as §1, §2, §3

[17] = tested on: AIRE (PP); settings: AIRE (PP), GST-tagged; arrays performed twice, n of 4
Description: as §1, §2, §3

[18] = tested on: TAF3; settings: TAF3, GST-tagged; arrays performed twice, n of 4
Description: as §1, §2, §3

[19] = tested on: SP140L; settings: SP140L, GST-tagged; arrays performed twice, n of 4
Description: as §1, §2, §3

[20] = tested on: RAG2; settings: RAG2, GST-tagged; arrays performed twice, n of 4
Description: as §1, §2, §3

[21] = tested on: PHF2; settings: PHF2, GST-tagged; arrays performed twice, n of 4
Description: as §1, §2, §3

[22] = tested on: PHF13; settings: PHF13, GST-tagged; arrays performed twice, n of 4
Description: as §1, §2, §3

[23] = tested on: BPTF (PB); settings: BPTF (PB), GST-tagged; arrays performed twice, n of 4
Description: as §1, §2, §3

[24] = tested on: KDM5B (3); settings: KDM5B (3), GST-tagged; arrays performed twice, n of 4
Description: as §1, §2, §3

[25] = tested on: DPF2 (PPC2W2); settings: DPF2 (PPC2W2), GST-tagged; arrays performed twice, n of 4
Description: as §1, §2, §3

[26] = tested on: MLL5; settings: MLL5, GST-tagged; arrays performed twice, n of 4
Description: as §1, §2, §3

[27] = tested on: BAZ2B; settings: BAZ2B, GST-tagged; arrays performed twice, n of 4
Description: as §1, §2, §3

[28] = tested on: PHF23; settings: PHF23, GST-tagged; arrays performed twice, n of 4
Description: as §1, §2, §3

[29] = tested on: KDM5A (3); settings: KDM5A (3), GST-tagged; arrays performed twice, n of 4
Description: as §1, §2, §3

[30] = tested on: ING1; settings: ING1, GST-tagged; arrays performed twice, n of 4
Description: as §1, §2, §3

Array Heatmap value (peptide array binding signal) [1]	Array Heatmap value (peptide array binding signal) [2]	Array Heatmap value (peptide array binding signal) [3]	Array Heatmap value (peptide array binding signal) [4]	Array Heatmap value (peptide array binding signal) [5]	Array Heatmap value (peptide array binding signal) [6]	Array Heatmap value (peptide array binding signal) [7]	Array Heatmap value (peptide array binding signal) [8]	Array Heatmap value (peptide array binding signal) [9]	Array Heatmap value (peptide array binding signal) [10]	Array Heatmap value (peptide array binding signal) [11]	Array Heatmap value (peptide array binding signal) [12]	Array Heatmap value (peptide array binding signal) [13]	Array Heatmap value (peptide array binding signal) [14]	Array Heatmap value (peptide array binding signal) [15]	Array Heatmap value (peptide array binding signal) [16]	Array Heatmap value (peptide array binding signal) [17]	Array Heatmap value (peptide array binding signal) [18]	Array Heatmap value (peptide array binding signal) [19]	Array Heatmap value (peptide array binding signal) [20]	Substance	also measured
0.7385	0.4411	0.4436	0.3305	0.5082	0.4348	0.3384	0.5396	0.5823	0.5383	0.4676	0.4298	0.6124	0.5427	0.3563	0.3523	0.4583	0.2655	0.3592	0.2387	H4K5ac + K16ac: H4 1-23	Array Heatmap value (peptide array binding signal) [21]: 0.425; Array Heatmap value (peptide array binding signal) [22]: 0.5774; Array Heatmap value (peptide array binding signal) [23]: 0.3372; Array Heatmap value (peptide array binding signal) [24]: 0.4611; Array Heatmap value (peptide array binding signal) [25]: 0.6547; Array Heatmap value (peptide array binding signal) [26]: 0.5139; Array Heatmap value (peptide array binding signal) [27]: 0.4504; Array Heatmap value (peptide array binding signal) [28]: 0.509; Array Heatmap value (peptide array binding signal) [29]: 0.4193; Array Heatmap value (peptide array binding signal) [30]: 0.5084
0.7798	0.4924	0.4694	0.3528	0.4942	0.4816	0.3838	0.6387	0.626	0.6142	0.4746	0.4574	0.8611	0.5643	0.3748	0.3765	0.4591	0.2843	0.3553	0.2728	H4K5me1 + K8ac + K12me1: H4 1-23	Array Heatmap value (peptide array binding signal) [21]: 0.5535; Array Heatmap value (peptide array binding signal) [22]: 0.6435; Array Heatmap value (peptide array binding signal) [23]: 0.368; Array Heatmap value (peptide array binding signal) [24]: 0.5017; Array Heatmap value (peptide array binding signal) [25]: 0.687; Array Heatmap value (peptide array binding signal) [26]: 0.5981; Array Heatmap value (peptide array binding signal) [27]: 0.4974; Array Heatmap value (peptide array binding signal) [28]: 0.5681; Array Heatmap value (peptide array binding signal) [29]: 0.4387; Array Heatmap value (peptide array binding signal) [30]: 0.5678
0.851	0.4977	0.4603	0.35	0.4976	0.4789	0.3716	0.6442	0.6061	0.619	0.4935	0.5051	0.7167	0.5726	0.3655	0.3674	0.4682	0.2856	0.3587	0.2518	H4K5me1 + K8me1 + K12me1: H4 1-23	Array Heatmap value (peptide array binding signal) [21]: 0.5422; Array Heatmap value (peptide array binding signal) [22]: 0.6372; Array Heatmap value (peptide array binding signal) [23]: 0.3553; Array Heatmap value (peptide array binding signal) [24]: 0.4984; Array Heatmap value (peptide array binding signal) [25]: 0.7329; Array Heatmap value (peptide array binding signal) [26]: 0.5583; Array Heatmap value (peptide array binding signal) [27]: 0.4829; Array Heatmap value (peptide array binding signal) [28]: 0.5446; Array Heatmap value (peptide array binding signal) [29]: 0.4441; Array Heatmap value (peptide array binding signal) [30]: 0.5585
0.7879	0.5255	0.4992	0.3768	0.5459	0.5044	0.3996	0.6251	0.6214	0.6125	0.498	0.4693	0.7526	0.614	0.3961	0.4096	0.4841	0.2999	0.383	0.271	H4K8ac + K12ac + K16ac: H4 1-23	Array Heatmap value (peptide array binding signal) [21]: 0.546; Array Heatmap value (peptide array binding signal) [22]: 0.6695; Array Heatmap value (peptide array binding signal) [23]: 0.384; Array Heatmap value (peptide array binding signal) [24]: 0.4821; Array Heatmap value (peptide array binding signal) [25]: 0.6365; Array Heatmap value (peptide array binding signal) [26]: 0.5342; Array Heatmap value (peptide array binding signal) [27]: 0.4965; Array Heatmap value (peptide array binding signal) [28]: 0.5595; Array Heatmap value (peptide array binding signal) [29]: 0.5089; Array Heatmap value (peptide array binding signal) [30]: 0.5851
